Assay results: patent US12281138B2, “5′-cap-trinucleotide- or higher oligonucleotide compounds and their use in stabilizing RNA, expressing proteins in therapy” (BioNTech RNA Pharmaceuticals GmbH, priority 2018, dated 2025)

Assays:
Balb/c mice = assay: Luciferase mRNA expression in vivo, bioluminescence imaging after intravenous application; conditions: 10 μg RNA per mouse, i.v.
[1] = test system: human immature dendritic cells (hiDCs); assay: Luciferase reporter mRNA translation in human immature dendritic cells; assay type: cell-based; conditions: co-transcriptionally capped Luciferase mRNA, 700 ng per well, liposome formulated, recorded over 72 h
Description: As a functional assay of cap analog incorporation, and as a test of translatability of the resulting cap structure, differently capped mRNA encoding a Luciferase reporter was transfected into human immature dendritic cells (hiDCs). For that, 700 ng capped RNA per well were formulated with liposomes as described in Kranz et al., Nature 534, 396-401 (2016), and added to a 96-well containing 5E04 hiDCs. Subsequently, reporter activity was recorded over 72 h.

Substance | in vivo luciferase protein levels compared to all cap0 RNAs (Balb/c mice; all time points) | in vivo luciferase protein levels compared to enzymatically capped cap1 mRNA (Balb/c mice; at the other time points) | translation in hiDCs (luciferase reporter activity) relative to mRNA capped with the corresponding D1 or D2 diastereomer of beta-S-ARCA [1]
m2^7,2′-OGppSpm^2′-OGpG [Compound 1] | always higher levels | only slightly lower levels | 
m2^7,2′-OGppSpm^2′-OGpG [Compound 1 (D1)] |  |  | comparable levels
